Experiments:
[1] = in vitro; conditions: human
[2] = tested on: SARS-CoV-2 (strain 20A.EU2); assay: microbe, parasite or virus in culture; conditions: Severe acute respiratory syndrome coronavirus 2, 96 h, read-out: IC50 20A.EU2

Molecule CCC(CC)COC(=O)[C@H](C)N[P@](=O)(OC[C@H]1O[C@@](C#N)(c2ccc3c(N)ncnn23)[C@H](O)[C@@H]1O)Oc1ccccc1 [remdesivir, reference compound] has a CC50 [1] of 43 µM and an IC50 [2] of 0.0044 µM.

Source: article PMC10218303, “Novel Polymyxin-Inspired Peptidomimetics Targeting the SARS-CoV-2 Spike:hACE2 Interface” (International Journal of Molecular Sciences, 2023)
